Tested on: T1, β-tubulin
T1 construct: gene TUBB
Test: ITDR-CETSA of β-tubulin at […] °C in CFPAC-1 COMT-/- cells
Type: cell-based

Which EC50 does the source give for `CNc1nc2ccccc2n2c(-c3ccc(OC)c(O)c3)cnc12` [EAPB04303] here?
Its EC50 is 3 ± 2 µM.

— PMC12149313 (Cell Death & Disease, 2025)
